Source: PubChem BioAssay (NCI)
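Results reflect a 48-hour exposure of cells in 96-well plates to compound at five concentrations. At the TGI there is no net growth.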

How the values were obtained:
Test in all cases: NCI-60 cell line screen, 48 h
LOX IMVI melanoma = system: LOX IMVI melanoma
KM12 colon = system: KM12 colon
NCI-H23 lung = system: NCI-H23 lung
M14 melanoma = system: M14 melanoma
HCT-116 colon = system: HCT-116 colon
NCI-H460 lung = system: NCI-H460 lung
NCI/ADR-RES ovarian = system: NCI/ADR-RES ovarian
MDA-MB-231 breast = system: MDA-MB-231 breast
DU-145 prostate = system: DU-145 prostate
SK-OV-3 ovarian = system: SK-OV-3 ovarian
HCC-2998 colon = system: HCC-2998 colon
MOLT-4 leukemia = system: MOLT-4 leukemia
SF-295 CNS = system: SF-295 CNS
PC-3 prostate = system: PC-3 prostate
SNB-19 CNS = system: SNB-19 CNS
RPMI-8226 leukemia = system: RPMI-8226 leukemia
U251 CNS = system: U251 CNS
HCT-15 colon = system: HCT-15 colon
OVCAR-4 ovarian = system: OVCAR-4 ovarian
SK-MEL-28 melanoma = system: SK-MEL-28 melanoma
MALME-3M melanoma = system: MALME-3M melanoma
T-47D breast = system: T-47D breast
IGROV1 ovarian = system: IGROV1 ovarian
HT29 colon = system: HT29 colon
MDA-MB-435 = system: MDA-MB-435
TK-10 renal = system: TK-10 renal
COLO 205 colon = system: COLO 205 colon
HOP-62 NSCLC = system: HOP-62 NSCLC
UO-31 renal = system: UO-31 renal
OVCAR-3 ovarian = system: OVCAR-3 ovarian
HOP-92 NSCLC = system: HOP-92 NSCLC
HL-60(TB) leukemia = system: HL-60(TB) leukemia
SK-MEL-5 melanoma = system: SK-MEL-5 melanoma
BT-549 breast = system: BT-549 breast
MDA-N = system: MDA-N
NCI-H226 lung = system: NCI-H226 lung
SR leukemia = system: SR leukemia
K-562 leukemia = system: K-562 leukemia
SK-MEL-2 melanoma = system: SK-MEL-2 melanoma
UACC-62 melanoma = system: UACC-62 melanoma
SW-620 colon = system: SW-620 colon
OVCAR-5 ovarian = system: OVCAR-5 ovarian
RXF 393 renal = system: RXF 393 renal
A498 renal = system: A498 renal
SN12C renal = system: SN12C renal
UACC-257 melanoma = system: UACC-257 melanoma
OVCAR-8 ovarian = system: OVCAR-8 ovarian
CAKI-1 renal = system: CAKI-1 renal
MCF7 breast = system: MCF7 breast
HS 578T breast = system: HS 578T breast
SNB-75 CNS = system: SNB-75 CNS
SF-268 CNS = system: SF-268 CNS
NCI-H522 lung = system: NCI-H522 lung
786-0 renal = system: 786-0 renal
ACHN renal = system: ACHN renal
A549 NSCLC = system: A549 NSCLC
EKVX NSCLC = system: EKVX NSCLC
SF-539 CNS = system: SF-539 CNS

Measured: TGI

C=CCOC1OC(CS(=O)(=O)O)C(O)C(O)C1O (configuration not stated)
> 100 µM: LOX IMVI melanoma | KM12 colon | NCI-H23 lung | M14 melanoma | HCT-116 colon | NCI-H460 lung | NCI/ADR-RES ovarian | MDA-MB-231 breast | DU-145 prostate | SK-OV-3 ovarian | HCC-2998 colon | MOLT-4 leukemia | SF-295 CNS | PC-3 prostate | SNB-19 CNS | RPMI-8226 leukemia | U251 CNS | HCT-15 colon | OVCAR-4 ovarian | SK-MEL-28 melanoma | MALME-3M melanoma | T-47D breast | IGROV1 ovarian | HT29 colon | MDA-MB-435 | TK-10 renal | COLO 205 colon | HOP-62 NSCLC | UO-31 renal | OVCAR-3 ovarian | HOP-92 NSCLC | HL-60(TB) leukemia | SK-MEL-5 melanoma | BT-549 breast | MDA-N | NCI-H226 lung | SR leukemia | K-562 leukemia | SK-MEL-2 melanoma | UACC-62 melanoma | SW-620 colon | OVCAR-5 ovarian | RXF 393 renal | A498 renal | SN12C renal | UACC-257 melanoma | OVCAR-8 ovarian | CAKI-1 renal | MCF7 breast | HS 578T breast | SNB-75 CNS

c1cc(CCN2CCCCC2)ccn1
> 100 µM: LOX IMVI melanoma | KM12 colon | NCI-H23 lung | M14 melanoma | HCT-116 colon | NCI-H460 lung | NCI/ADR-RES ovarian | MDA-MB-231 breast | DU-145 prostate | SK-OV-3 ovarian | MOLT-4 leukemia | SF-295 CNS | SF-268 CNS | PC-3 prostate | NCI-H522 lung | 786-0 renal | SNB-19 CNS | RPMI-8226 leukemia | U251 CNS | HCT-15 colon | OVCAR-4 ovarian | SK-MEL-28 melanoma | MALME-3M melanoma | T-47D breast | IGROV1 ovarian | ACHN renal | HT29 colon | MDA-MB-435 | TK-10 renal | COLO 205 colon | HOP-62 NSCLC | UO-31 renal | OVCAR-3 ovarian | HOP-92 NSCLC | SK-MEL-5 melanoma | BT-549 breast | MDA-N | A549 NSCLC | NCI-H226 lung | SR leukemia | K-562 leukemia | EKVX NSCLC | SK-MEL-2 melanoma | UACC-62 melanoma | SW-620 colon | OVCAR-5 ovarian | RXF 393 renal | A498 renal | SN12C renal | UACC-257 melanoma | OVCAR-8 ovarian | SF-539 CNS | CAKI-1 renal | MCF7 breast | HS 578T breast | SNB-75 CNS
